Assay results from US4339535A, “Process for preparing antibiotic EM 4940” (E. R. Squibb & Sons, Inc., priority 1980, dated 1982).
≈ marks a conversion by molar mass, not a printed value. Where two headings read alike, the source gives them in different places.

How the values were obtained:
Propionibacterium acnes = assay: MIC anaerobic screen; assay type: cell-based; conditions: Cutibacterium acnes, Table IV, strain 4020, read-out: Minimum Inhibitory Concentration
Acholeplasma laidlawii = assay: MIC against mycoplasmas; assay type: cell-based; conditions: Table VIII, 48 hours, 37° C., phenol red color change
[1] = tested on: Fusobacterium necrophorum; assay: MIC anaerobic screen; assay type: cell-based; conditions: Table IV, strain 11,338, read-out: Minimum Inhibitory Concentration
Procedure: (§1) The antibiotic is prepared as described above for the aerobic screen.
(§2) All organisms are maintained in a tube of chopped meat broth with glucose supplied by Scott Laboratories in Rhode Island. Two days prior to running the test 0.1 ml of the maintained culture is transferred to a fresh tube of chopped meat broth, and the tube is incubated at 37° C. for 48 hours. After 48 hours incubation each culture is assumed to have grown to 1×10^8 CFU/ml.
(§3) The organisms are stamped onto antibiotic containing agar plates (Mueller Hinton Agar BBL+5% whole sheep blood+0.2% lysed sheep blood) to give an inoculum level of 10^5 CFU.
(§4) After stamping, the plates are placed in an anaerobic gas pack system (BBL) and incubated at 37° C. for 18 hours.

Clostridium histolyticum = assay: MIC anaerobic screen; assay type: cell-based; conditions: Hathewaya histolytica, Table IV, strain 8572, read-out: Minimum Inhibitory Concentration
Procedure: as §1, §2, §3, §4

Clostridium septicum = assay: MIC anaerobic screen; assay type: cell-based; conditions: Table IV, strain 1780, read-out: Minimum Inhibitory Concentration
Procedure: as §1, §2, §3, §4

Clostridium sporogenes = assay: MIC anaerobic screen; assay type: cell-based; conditions: Table IV, strain 2372, read-out: Minimum Inhibitory Concentration
Procedure: as §1, §2, §3, §4

Eubacterium lentum = assay: MIC anaerobic screen; assay type: cell-based; conditions: Eggerthella lenta, Table IV, strain 11,261, read-out: Minimum Inhibitory Concentration
Procedure: as §1, §2, §3, §4

Klebsiella aerogenes = assay: MIC aerobic screen, H-59 synthetic agar; conditions: read-out: Minimum Inhibitory Concentration
Salmonella typhimurium = assay: MIC aerobic screen, H-59 synthetic agar; conditions: Salmonella enterica, read-out: Minimum Inhibitory Concentration
Serratia marcescens = assay: MIC aerobic screen, BA-2 agar; conditions: Serratia marcescens
M. canis = assay: MIC against dermatophytes; assay type: cell-based; conditions: Microsporum canis; Table VI; strain 9237; 26° C., 48 hours; read-out: Minimum Inhibitory Concentration
Candida albicans = assay: MIC against Candida albicans (broth tube dilution); assay type: cell-based; conditions: Table V, strain 5314, read-out: Minimum Inhibitory Concentration
[2] = tested on: gram-positive and gram-negative bacteria, yeasts, fungi, acholeplasma, and the protozoan Trichomonas vaginalis; assay: biological activity, general statement; conditions: A form versus B form
Escherichia coli [3] = assay: MIC aerobic screen, BA-2 agar; conditions: Escherichia coli
T. mentagrophytes = assay: MIC against dermatophytes; assay type: cell-based; conditions: Trichophyton mentagrophytes; Table VI; strain 2637; 26° C., 48 hours; read-out: Minimum Inhibitory Concentration
Clostridium perfringens = assay: microbe, parasite or virus in culture; assay type: cell-based; conditions: read-out: Minimum Inhibitory Concentration
Mycoplasma mycoides = assay: microbe, parasite or virus in culture; assay type: cell-based; conditions: 48 h
Enterobacter cloacae = assay: MIC aerobic screen, BA-2 agar; conditions: Enterobacter cloacae, strain 10,459
Shigella sonnei [4] = assay: MIC aerobic screen, H-59 synthetic agar; assay type: cell-based; conditions: Table III, H-59 agar, strain 8449, read-out: Minimum Inhibitory Concentration
Description: (A) Using H-59 Synthetic Agar

Klebsiella penumoniae = assay: MIC aerobic screen, H-59 synthetic agar; conditions: read-out: Minimum Inhibitory Concentration
Peptococcus variabilis = assay: MIC anaerobic screen; assay type: cell-based; conditions: Table IV, strain 11,264, read-out: Minimum Inhibitory Concentration
Bacteroides fragilis = assay: MIC anaerobic screen; assay type: cell-based
E. floccosum = assay: MIC against dermatophytes; assay type: cell-based; conditions: Epidermophyton floccosum; Table VI; strain 9185; 26° C., 48 hours; read-out: Minimum Inhibitory Concentration
Shigella sonnei [5] = assay: MIC aerobic screen, BA-2 agar; assay type: cell-based; conditions: strain 8449
Escherichia coli [6] = assay: MIC aerobic screen, H-59 synthetic agar
[7] = tested on: Peptostreptococcus anaerobius; assay: MIC anaerobic screen; assay type: cell-based; conditions: Table IV, strain 11,263, read-out: Minimum Inhibitory Concentration
Trichomonas vaginalis = assay: MIC against Trichomonas vaginalis; assay type: cell-based; conditions: Table VII, strain 8560, anaerobic, 37° C., 40 hours, read-out: Minimum Inhibitory Concentration
T. rubrum = assay: MIC against dermatophytes; assay type: cell-based; conditions: Trichophyton rubrum; Table VI; strain 9199; 26° C., 48 hours; read-out: Minimum Inhibitory Concentration
solubility = assay type: physicochemical

## CC1(O)CC(C(N)=O)N=C1c1ncccc1O (stereo not drawn) [EM4940A, 2,4-trans-3,4-dihydro-4-hydroxy-5-(3-hydroxy-2-pyridinyl)-4-methyl-2H-pyrrole-2-carboxamide]
Propionibacterium acnes
  MIC: 50 µg/mL (≈ 213 µM)
Acholeplasma laidlawii
  MIC: 100 µg/mL (≈ 425 µM)
[1]
  MIC: 12.5 µg/mL (≈ 53.1 µM)
Clostridium histolyticum
  MIC: 12.5 µg/mL (≈ 53.1 µM)
Clostridium septicum
  MIC: 12.5 µg/mL (≈ 53.1 µM)
Clostridium sporogenes
  MIC: 12.5 µg/mL (≈ 53.1 µM)
Eubacterium lentum
  MIC: 12.5 µg/mL (≈ 53.1 µM)
Klebsiella aerogenes
  MIC: 50 µg/mL (≈ 213 µM)
Salmonella typhimurium
  MIC: 50 µg/mL (≈ 213 µM)
Serratia marcescens; read-out: Minimum Inhibitory Concentration, Table I, BA-2 agar, strain 1111
  MIC: > 100 µg/mL
Serratia marcescens; read-out: Minimum Inhibitory Concentration, Table I, BA-2 agar, strain 9782
  MIC: 100 µg/mL (≈ 425 µM)
Serratia marcescens; read-out: Minimum Inhibitory Concentration, Table II, additional tests, strain 9782
  MIC: 50 µg/mL (≈ 213 µM)
Serratia marcescens; read-out: Minimum Inhibitory Concentration, Table II, additional tests, strain 11,111
  MIC: 100 µg/mL (≈ 425 µM)
M. canis
  MIC: 100 µg/mL (≈ 425 µM)
Candida albicans; Candida albicans, Medium: F4
  MIC: > 100 µg/mL
Candida albicans; Medium: Yeast Nitrogen Base + Glucose
  MIC: > 100 µg/mL
[2]
  biological activity of A form relative to B form: more active than the B form
Escherichia coli [3]; read-out: Minimum Inhibitory Concentration, Table I, BA-2 agar, strain 10,404
  MIC: 100 µg/mL (≈ 425 µM)
Escherichia coli [3]; read-out: Minimum Inhibitory Concentration, Table I, BA-2 agar, strain 10,857
  MIC: 50 µg/mL (≈ 213 µM)
Escherichia coli [3]; read-out: Minimum Inhibitory Concentration, Table I, BA-2 agar, strain 10,896
  MIC: 25 µg/mL (≈ 106 µM)
Escherichia coli [3]; read-out: Minimum Inhibitory Concentration, Table II, additional tests, strain 10,404
  MIC: 50 µg/mL (≈ 213 µM)
Escherichia coli [3]; read-out: Minimum Inhibitory Concentration, Table II, additional tests, strain 10,857
  MIC: 50 µg/mL (≈ 213 µM)
T. mentagrophytes
  MIC: > 100 µg/mL
Clostridium perfringens
  MIC: 50 µg/mL (≈ 213 µM)
Mycoplasma mycoides
  MIC: > 100 µg/mL
Enterobacter cloacae; read-out: Minimum Inhibitory Concentration, Table I, BA-2 agar
  MIC: > 100 µg/mL
Enterobacter cloacae; read-out: Minimum Inhibitory Concentration, Table II, additional tests
  MIC: 50 µg/mL (≈ 213 µM)
Shigella sonnei [4]
  MIC: 50 µg/mL (≈ 213 µM)
Klebsiella penumoniae
  MIC: 50 µg/mL (≈ 213 µM)
Peptococcus variabilis
  MIC: 50 µg/mL (≈ 213 µM)
Bacteroides fragilis; Table IV, anaerobic, strain 9005, read-out: Minimum Inhibitory Concentration
  MIC: 50 µg/mL (≈ 213 µM)
Bacteroides fragilis; Table IV, anaerobic, strain 10,277, read-out: Minimum Inhibitory Concentration
  MIC: 50 µg/mL (≈ 213 µM)
Bacteroides fragilis; Table IV, anaerobic, strain 10,278, read-out: Minimum Inhibitory Concentration
  MIC: 50 µg/mL (≈ 213 µM)
Bacteroides fragilis; Table IV, anaerobic, strain 10,279, read-out: Minimum Inhibitory Concentration
  MIC: 50 µg/mL (≈ 213 µM)
Bacteroides fragilis; Table IV, anaerobic, strain 10,281, read-out: Minimum Inhibitory Concentration
  MIC: 50 µg/mL (≈ 213 µM)
Bacteroides fragilis; Table IV, anaerobic, strain 11,085, read-out: Minimum Inhibitory Concentration
  MIC: 100 µg/mL (≈ 425 µM)
Bacteroides fragilis; Table IV, anaerobic, strain 11,086, read-out: Minimum Inhibitory Concentration
  MIC: 50 µg/mL (≈ 213 µM)
Bacteroides fragilis; read-out: Minimum Inhibitory Concentration
  MIC: 12.5 µg/mL (≈ 53.1 µM)
E. floccosum
  MIC: > 100 µg/mL
Shigella sonnei [5]; Shigella sonnei, Table I, BA-2 agar, read-out: Minimum Inhibitory Concentration
  MIC: 50 µg/mL (≈ 213 µM)
Shigella sonnei [5]; Table II, additional tests
  Minimum Inhibitory Concentration: 50 µg/mL
Escherichia coli [6]; read-out: Minimum Inhibitory Concentration, Table III, H-59 agar, strain 10,404
  MIC: 50 µg/mL (≈ 213 µM)
Escherichia coli [6]; read-out: Minimum Inhibitory Concentration, Table III, H-59 agar, strain 10,857
  MIC: 25 µg/mL (≈ 106 µM)
[7]
  MIC: 50 µg/mL (≈ 213 µM)
Trichomonas vaginalis
  MIC: 12.5 µg/mL (≈ 53.1 µM)
T. rubrum
  MIC: 50 µg/mL (≈ 213 µM)
solubility; hexane
  solubility: Insoluble
solubility; methanol, ethanol, ethyl acetate, acetone and chloroform
  solubility: soluble
solubility; water
  solubility: Insoluble
